Here are results for 54 compounds from patent US10639284B2, “Immunomodulator compounds” (CHEMOCENTRYX, INC., priority 2016, dated 2020).

As a reminder, the IC50 is the midpoint of a concentration-inhibition curve.

Sequence of human PD-L1 / Human PD-1 (Q9NZQ7 19-239): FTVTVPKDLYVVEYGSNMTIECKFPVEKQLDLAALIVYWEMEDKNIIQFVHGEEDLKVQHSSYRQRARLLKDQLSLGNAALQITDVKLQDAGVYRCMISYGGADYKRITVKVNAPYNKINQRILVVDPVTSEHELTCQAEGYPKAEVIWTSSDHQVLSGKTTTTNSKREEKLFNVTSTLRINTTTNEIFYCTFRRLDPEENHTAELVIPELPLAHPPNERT

In one assay the target is human PD-L1 / Human PD-1 (Homo sapiens (Human), UniProt Q9NZQ7). Put plainly: Enzyme-Linked Immunosorbent Assay (ELISA), PD-1/PD-L1 binding. The note with it: Table 2; plate-coated human PD-L1, biotinylated human PD-1; read-out: ELISA IC50. Summed up:
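Human PD-L1 coated at 1 μg/mL overnight at 4° C; samples diluted 1:5 and incubated with human PD-1 and biotin (0.3 μg/mL) for 1 h at 37° C. Bound PD-1 detected with streptavidin-HRP and TMB (20 min, 37° C), acid-stopped, absorbance at 450 nm.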
In general terms: In an ELISA, binding on a coated surface is turned into a signal by an enzyme label.
Take `C[C@@H](NCc1cc(Cl)c(O[C@H]2CCc3c(-c4ccccc4F)cccc32)cc1OCc1cncc(C#N)c1)C(=O)O` [Example 2.141]: the IC50 is < 100 nM.

Consider `COc1cccc(-c2cccc3c2CC[C@@H]3Oc2cc(OCc3cncc(C#N)c3)c(CNCC(C)(C)O)cc2Cl)c1F` [Example 2.142], for which the 50% inhibitory concentration (IC50) fell in the range of 100 to 500 nM.

Consider `CC(C)(O)CNCc1cc(Cl)c(O[C@H]2CCc3c(-c4ccccc4F)cccc32)cc1OCc1cncc(C#N)c1` [Example 2.143], for which the 50% inhibitory concentration (IC50) was 100 to 500 nM.

`N#Cc1cncc(COc2cc(O[C@H]3CCc4c(-c5ccccc5F)cccc43)c(Cl)cc2CNC2(C(=O)O)CC2)c1` [Example 2.144]: the half-inhibitory concentration (IC50) was < 100 nM.

As for `N#Cc1cncc(COc2cc(O[C@H]3CCc4c(-c5ccccc5F)cccc43)c(Cl)cc2CNC2(C(=O)O)CCC2)c1` [Example 2.145], the 50% inhibitory concentration (IC50) was < 100 nM.

For `C[C@@H](O)[C@H](NCc1cc(Cl)c(O[C@@H]2c3cccc(-c4ccccc4F)c3C[C@H]2F)cc1OCc1cncc(C#N)c1)C(=O)O` [Example 2.146], the IC50 was < 100 nM.

In the case of `N#Cc1cncc(COc2cc(O[C@@H]3c4cccc(-c5ccccc5F)c4C[C@H]3F)c(Cl)cc2CN[C@@H](CO)C(=O)O)c1` [Example 2.147], the IC50 is < 100 nM.

As to `N#Cc1cncc(COc2cc(O[C@@H]3c4cccc(-c5ccccc5F)c4C[C@H]3F)c(Cl)cc2CN2CCC(O)CC2)c1` [Example 2.148], the half-inhibitory concentration (IC50) fell in the range of 500 to 20000 nM.

As to `C[C@@H](O)[C@H](NCc1cc(Cl)c(O[C@H]2CCc3c(-c4ccccc4F)cccc32)cc1OCc1cncc(C#N)c1)C(N)=O` [Example 2.149], the half-inhibitory concentration (IC50) fell in the range of 100 to 500 nM.

Regarding `N#Cc1cncc(COc2cc(O[C@H]3CCc4c(-c5ccccc5F)cccc43)c(Cl)cc2CNCc2nc(=O)o[nH]2)c1` [Example 2.150], the 50% inhibitory concentration (IC50) lay in the range of 100 to 500 nM.

For `N#Cc1cncc(COc2cc(O[C@H]3CCc4c(-c5ccccc5F)cccc43)c(Cl)cc2CNCC(=O)NO)c1` [Example 2.151], the IC50 was in the range of 500 to 20000 nM.

In the case of `CC(CO)(NCc1cc(Cl)c(O[C@H]2CCc3c(-c4ccccc4F)cccc32)cc1OCc1cncc(C#N)c1)C(=O)O` (stereo partly drawn) [Example 2.152], the half-inhibitory concentration (IC50) was < 100 nM.

For `CCOc1cc(O[C@H]2CCc3c(-c4ccccc4F)cccc32)c(Cl)cc1CN[C@@H](C)C(=O)O` [Example 2.153], the concentration for half-maximal inhibition (IC50) was 100 to 500 nM.

Turning to `CCOc1cc(O[C@H]2CCc3c(-c4ccccc4F)cccc32)c(Cl)cc1CN[C@@H](C)C(=O)O` [Example 2.154], the IC50 is 100 to 500 nM.

For `CCOc1cc(O[C@H]2CCc3c(-c4ccccc4F)cccc32)c(Cl)cc1CN[C@H](CO)C(=O)O` [Example 2.155], the 50% inhibitory concentration (IC50) lay in the range of 100 to 500 nM.

Consider `CCOc1cc(O[C@H]2CCc3c(-c4ccccc4F)cccc32)c(Cl)cc1CN[C@H](CO)C(=O)O` [Example 2.156], for which the IC50 lay in the range of 100 to 500 nM.

Take `CCOc1cc(O[C@H]2CCc3c(-c4ccccc4F)cccc32)c(Cl)cc1CN[C@H](C(=O)O)[C@@H](C)O` [Example 2.157]: the half-inhibitory concentration (IC50) lay within 100 to 500 nM.

As for `CCOc1cc(O[C@H]2CCc3c(-c4ccccc4F)cccc32)c(Cl)cc1CN[C@H](C(=O)O)[C@@H](C)O` [Example 2.158], the IC50 lay in the range of 100 to 500 nM.

For `C[C@@](CO)(NCc1cc(Cl)c(O[C@H]2CCc3c(-c4ccccc4F)cccc32)cc1-c1cncc(C#N)c1)C(=O)O` [Example 2.159], the concentration for half-maximal inhibition (IC50) was < 100 nM.

For the compound `C[C@@H](O)[C@H](NCc1cc(Cl)c(O[C@H]2CCc3c(-c4ccc5c(c4Cl)OCCO5)cccc32)cc1OCc1cncc(C#N)c1)C(=O)O` [Example 2.160], the IC50 is < 100 nM.

As for `N#Cc1cncc(COc2cc(O[C@H]3CCc4c(-c5ccc6c(c5Cl)OCCO6)cccc43)c(Cl)cc2CN[C@@H](CO)C(=O)O)c1` [Example 2.161], the IC50 is < 100 nM.

Consider `CCOC(=O)[C@H](CO)NCc1cc(Cl)c(O[C@H]2CCc3c(-c4ccccc4F)cccc32)cc1OCc1cncc(C#N)c1` [Example 2.162], for which the 50% inhibitory concentration (IC50) was in the range of 500 to 20000 nM.

On to `C[C@H](NCc1cc(Cl)c(O[C@H]2CCc3c(-c4ccc5c(c4Cl)OCCO5)cccc32)cc1OCc1cncc(C#N)c1)C(=O)O` [Example 2.163], for which the IC50 lay in the range of 100 to 500 nM.

Take `CCOc1cc(O[C@H]2CCc3c(-c4ccccc4F)cccc32)c(Cl)cc1CNC(CO)(CO)CO` [Example 2.164]: the IC50 was < 100 nM.

On to `N#Cc1cncc(COc2cc(O[C@H]3CCc4c(-c5ccccc5F)cccc43)c(Cl)cc2CNC2(C(=O)O)CCCC2)c1` [Example 2.165], for which the half-inhibitory concentration (IC50) is < 100 nM.

On to `N#Cc1cncc(COc2cc(O[C@H]3CCc4c(-c5ccccc5F)cccc43)c(Cl)cc2CNC(CO)C(=O)NO)c1` (stereo partly drawn) [Example 2.166], for which the IC50 was 100 to 500 nM.

On to `N#Cc1cncc(COc2cc(O[C@H]3CCc4c(-c5ccccc5F)cccc43)c(Cl)cc2CN[C@@H](CO)C(N)=O)c1` [Example 2.167], for which the concentration for half-maximal inhibition (IC50) fell in the range of 100 to 500 nM.

For `C[C@H](NCc1cc(Cl)c(O[C@H]2CCc3c(-c4ccccc4F)cccc32)cc1OCc1cncc(C#N)c1)C(N)=O` [Example 2.168], the half-inhibitory concentration (IC50) fell in the range of 100 to 500 nM.

Take `CC(C)OC(=O)[C@@H](NCc1cc(Cl)c(O[C@H]2CCc3c(-c4ccccc4F)cccc32)cc1OCc1cncc(C#N)c1)[C@@H](C)O` [Example 2.169]: the half-inhibitory concentration (IC50) fell in the range of 500 to 20000 nM.

As to `N#Cc1cncc(COc2cc(O[C@H]3CCc4c(-c5ccccc5F)cccc43)c(Cl)cc2CNC(C(N)=O)C(N)=O)c1` [Example 2.170], the IC50 was in the range of 500 to 20000 nM.

Turning to `N#Cc1cncc(COc2cc(O[C@H]3CCc4c(-c5ccccc5F)cccc43)c(Cl)cc2CNCC(N)=O)c1` [Example 2.171], the IC50 fell in the range of 100 to 500 nM.

In the case of `CC(C)OC(=O)[C@H](CO)NCc1cc(Cl)c(O[C@H]2CCc3c(-c4ccccc4F)cccc32)cc1OCc1cncc(C#N)c1` [Example 2.172], the half-inhibitory concentration (IC50) was in the range of 500 to 20000 nM.

In the case of `N#Cc1cncc(COc2cc(O[C@H]3CCc4c(-c5ccccc5F)cccc43)c(Cl)cc2CNC(=O)CCCC(=O)O)c1` [Example 2.173], the IC50 was 500 to 20000 nM.

On to `N#Cc1cncc(COc2cc(O[C@H]3CCc4c(-c5ccccc5F)cccc43)c(Cl)cc2CN[C@@H]2[C@@H]3CC[C@@H](C3)[C@@H]2C(=O)O)c1` [Example 2.174], for which the IC50 is 500 to 20000 nM.

Turning to `N#Cc1cncc(COc2cc(O[C@H]3CCc4c(-c5ccccc5F)cccc43)c(Cl)cc2CN[C@@H](C(=O)O)c2ccc(O)cc2)c1` [Example 2.175], the IC50 fell in the range of 100 to 500 nM.

As to `N#Cc1cncc(COc2cc(O[C@H]3CCc4c(-c5ccccc5F)cccc43)c(Cl)cc2CN[C@@H](C(=O)O)c2ccccc2)c1` [Example 2.176], the IC50 is < 100 nM.

With `CCOc1cc(O[C@H]2CCc3c(-c4ccccc4F)cccc32)c(Cl)cc1CNC(C)(CO)C(=O)O` (stereo partly drawn) [Example 2.177], the 50% inhibitory concentration (IC50) fell in the range of 100 to 500 nM.

As for `N#Cc1cncc(COc2cc(O[C@H]3CCc4c(-c5ccccc5F)cccc43)c(Cl)cc2CN[C@H](C(=O)O)c2ccccc2)c1` [Example 2.178], the half-maximal inhibitory concentration (IC50) lay within 100 to 500 nM.

Staying with this assay, now noted: Table 3; plate-coated human PD-L1, biotinylated human PD-1; read-out: ELISA IC50.
With `CS(=O)(=O)c1cc(COc2cc(O[C@H]3CCc4c(-c5ccccc5F)cccc43)c(Cl)cc2CN[C@@H](CO)C(=O)O)cc(S(C)(=O)=O)c1` [Example 3.001], the half-inhibitory concentration (IC50) is < 100 nM.

For the compound `N#Cc1cc(C#N)cc(COc2cc(O[C@H]3CCc4c(-c5ccc6c(c5)OCCO6)cccc43)c(Cl)cc2CN[C@@H](CO)C(=O)O)c1` [Example 3.002], the IC50 was < 100 nM.

With `N#Cc1cc(C#N)cc(COc2cc(O[C@H]3CCc4c(-c5ccccc5F)cccc43)c(Cl)cc2CN[C@@H](CO)C(=O)O)c1` [Example 3.004], the half-maximal inhibitory concentration (IC50) is < 100 nM.

Turning to `C[C@@](CO)(NCc1cc(Cl)c(O[C@H]2CCc3c(-c4ccc5c(c4F)OCCO5)cccc32)cc1OCc1cc(C#N)cc(C#N)c1)C(=O)O` [Example 3.005], the IC50 was < 100 nM.

Take `N#Cc1cc(C#N)cc(COc2cc(O[C@H]3CCc4c(-c5ccc6c(c5F)OCCO6)cccc43)c(Cl)cc2CN[C@@H](CO)C(=O)O)c1` [Example 3.006]: the IC50 was < 100 nM.

Regarding `N#Cc1cncc(COc2cc(O[C@H]3CCc4c(-c5cc6c(cc5F)OCCO6)cccc43)c(Cl)cc2CN[C@H](O)CO)c1` [Example 3.007], the IC50 was < 100 nM.

For the compound `N#Cc1cncc(COc2cc(O[C@H]3CCc4c(-c5ccc6c(c5F)OCCO6)cccc43)c(Cl)cc2CN[C@@H](CO)C(=O)O)c1` [Example 3.008], the IC50 was < 100 nM.

Consider `C[C@@](CO)(NCc1cc(Cl)c(O[C@H]2CCc3c(-c4ccc5c(c4F)OCCO5)cccc32)cc1OCc1cncc(C#N)c1)C(=O)O` [Example 3.009], for which the 50% inhibitory concentration (IC50) is < 100 nM.

Turning to `CS(=O)(=O)c1cncc(COc2cc(O[C@H]3CCc4c(-c5ccc6c(c5F)OCCO6)cccc43)c(Cl)cc2CN[C@@H](CO)C(=O)O)c1` [Example 3.010], the IC50 was < 100 nM.

Turning to `N#Cc1cncc(COc2cc(O[C@H]3CCc4c(-c5cc6c(c(F)c5F)OCCO6)cccc43)c(Cl)cc2CN[C@@H](CO)C(=O)O)c1` [Example 3.011], the IC50 was < 100 nM.

`O=C(O)[C@H](CO)NCc1cc(Cl)c(O[C@H]2CCc3c(-c4ccc5c(c4F)OCCO5)cccc32)cc1OCc1cc(F)cc(F)c1` [Example 3.012]: the concentration for half-maximal inhibition (IC50) lay within 500 to 20000 nM.

Consider `O=C(O)[C@H](CO)NCc1cc(Cl)c(O[C@H]2CCc3c(-c4ccc5c(c4F)OCCO5)cccc32)cc1OCc1cc(F)cc(Cl)c1` [Example 3.013], for which the IC50 was in the range of 500 to 20000 nM.

Turning to `O=C(O)[C@H](CO)NCc1cc(Cl)c(O[C@H]2CCc3c(-c4ccc5c(c4F)OCCO5)cccc32)cc1OCc1cc(Cl)cc(Cl)c1` [Example 3.014], the IC50 was in the range of 500 to 20000 nM.

For `N#Cc1cc(Cl)cc(COc2cc(O[C@H]3CCc4c(-c5ccc6c(c5F)OCCO6)cccc43)c(Cl)cc2CN[C@@H](CO)C(=O)O)c1` [Example 3.015], the IC50 is < 100 nM.

Regarding `COc1cccc(-c2cccc3c2CC[C@@H]3Oc2cc(OCc3cc(C#N)cc(C#N)c3)c(CN[C@@H](CO)C(=O)O)cc2Cl)c1Cl` [Example 3.016], the IC50 was < 100 nM.

With `N#Cc1cncc(COc2cc(O[C@H]3CCc4c(-c5cc(F)c6c(c5)OCCO6)cccc43)c(Cl)cc2CN[C@@H](CO)C(=O)O)c1` [Example 3.017], the half-inhibitory concentration (IC50) was < 100 nM.
